Laboratory results as given in patent US20100056560A1, “USE FOR TREATING OBESITY AND DIABETES” (priority 2006, published 2010).

Test system: adiponectin
Assay: Expression of adiponectin in 3T3-L1 adipocytes (Western blot)
Type: cell-based, Mouse
Conditions: 3T3-L1, 100 μM isoflavone, 1 mM L-carnitine, 1 mM L-arginine, 100 ppm caffeine, 24 hours
Procedure: Mouse undifferentiated 3T3-L1 adipocytes) (purchased from ATCC) were cultured in 10% calf serum-containing DMEM (Dulbecco's modified Eagle's medium, Gibco 1210-0038) in a 10% CO2 incubator to a confluency of 70% while replacing the medium with a fresh medium at 2-day intervals. For differentiation into adipocytes, the cells were cultured in a medium (containing 10% fetal bovine serum, 0.5 mM 3-isobutyl-1-methyxanthine (Sigma), 1 μM dexamethasone (Sigma) and 167 nM insulin (Novo-Nordisk)) for 48 hours, and then the medium was replaced with a DMEM medium (containing 10% fetal bovine serum and 167 nM insulin), in which the cells were further cultured for 48 hours. Finally, the cells were further cultured in a medium (containing only 10% fetal bovine serum) for 48 hours, thus obtaining differentiated adipocytes.
The adipocytes, differentiated in the step 1, were cultured in a medium, containing 51 fatty acid-free calf serum, for 16 hours. On the next day, the cultured cells were washed three times with PBS, and then treated with each of 100 μM isoflavone, 1 mM L-carnitine, 1 mM L-arginine, 100 ppm caffeine and a mixture of 100 μM isoflavone+1 mM L-carnitine+1 mM L-arginine+100 ppm caffeine. After 24 hours of cell incubation, a protein was isolated from each of the media and subjected to Western blot analysis in order to examine a change in the expression of adiponectin.

Cn1c(=O)c2c(ncn2C)n(C)c1=O [caffeine]
expression of adiponectin: decrease in the expression of adiponectin
